The values below come from the supplement of paper PMC10290057.
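Note: Luminescence-based viability readout, five doses per compound, normalized against on-plate DMSO and empty-well controls, followed by dose-response curve fitting for every drug.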

The assay concerns HCT116. Description: efficacy (fitted maximal change in viability relative to DMSO control); higher = less cytotoxic (negative = loss of viability). The conditions noted are these: 48 h.
For `c1ccc(-c2nn3c(c2-c2ccnc4cc(OCCN5CCOCC5)ccc24)CCC3)nc1`, the efficacy is -41.1%.
As for `CC(=O)O/N=C1\C(=O)N(Cc2cc(Cl)ccc2Cl)c2ccc(Cl)cc21`, the figure is -71.8%.
Take `CC(C)N(CCCNC(=O)Nc1ccc(C(C)(C)C)cc1)C[C@H]1O[C@@H](n2ccc3c(N)ncnc32)[C@H](O)[C@@H]1O`: the efficacy is -31.1%.
The figure for `Cc1ccc(/C=N/NC(=O)c2ccccc2Oc2ccccc2)o1` is -6.56%; for `Cc1ncc(Cl)cc1NCc1ccc(C(=O)NC(CC2CCCC2)C(=O)NC2CC2)s1` (stereo not given) it is -78.2%.
The figure for `CCc1cc(Nc2nccc(-c3c(-c4ccc(OC)c(C(=O)Nc5c(F)cccc5F)c4)nc4ccccn34)n2)c(OC)cc1N1CCC(N2CCN([S+](C)(=O)[O-])CC2)CC1` is -21%; for `CCCCOc1ccc(C(=O)Nc2ccc(F)cc2F)cc1` it is -14.8%.
The figure for `CCCCOCCOc1nc(-c2ccc(C(=O)O)c(F)c2)sc1C` is -10%; for `CCOc1cc(/C=C2/C(=O)N(c3ccccc3)N=C2C)cc(Cl)c1OCC(=O)OC` it is -22.5%.
`CCOC1=CC=C(C=C1)N2C(=O)C3=CC=CN=C3/N=C2/[C@@H](C)N(CC4=CC=CN=C4)C(=O)CC5=CC=C(F)C(=C5)C(F)(F)F`: the efficacy was -9.22%.
The figure for `Cc1cc(NC(=O)Nc2ccc(N(C)C)cc2)c2cc(F)cc(F)c2n1` is -37.6%.
The figure for `CN(C)c1ccc(Nc2nc(N)n(C(=O)c3c(F)cccc3F)n2)cc1` is -100%; for `Cc1nn(C)c(COc2ccc(N3CCN([S+](=O)([O-])N(C)C)CC3)cc2)c1-c1cccc2c(CCCOc3cccc4ccccc34)c(C(=O)O)n(CCN3CCOCC3)c12` it is -17.2%; for `CN1C(=O)C(=C\C2=C1N=C(NC3=CC=CC(=C3)C(O)=O)N=C2)/C4=C(Cl)C=CC=C4Cl` it is -10.3%.
The figure for `Cc1c(-c2c(-c3ccc(F)o3)sc3ncnc(O[C@@H](Cc4ccccc4OCc4ccnn4CC(F)(F)F)C(=O)O)c23)ccc(OCCN2CCN(C)CC2)c1Cl` is 9.5%; for `CNc1nc(C)nc(N[C@H]2CCC[C@@H](C(=O)NCc3ccc(C#N)cc3C(F)(F)F)C2)n1` it is -20.5%.
As for `COC(=O)N(CC(=O)O)Cc1cccc(OCc2nc(-c3ccc(Cl)cc3)oc2C)c1`, the efficacy is -8.59%.
As for `COC1(C[S+]([O-])c2ccccc2)CCN(CCc2c[nH]c3ccc(F)cc23)CC1` (stereo not given), the figure is -18.2%; as for `COc1cc(OC)c(NC(=O)Nc2cc(C)on2)cc1Cl`, -7.13%; as for `COC1=C(OC)C=C2C(=CC=NC2=C1)OC3=CC=C(NC(=O)\C4=C\N(C(C)C)C(=O)N(C4=O)C5=CC=C(F)C=C5)C=C3F`, -13.9%.
On to `COc1cc[nH]c2ncc(C(=O)C(=O)N3CCN(C(=O)c4ccccc4)C[C@H]3C)c1-2`, for which the efficacy is -10.7%.
The figure for `COC1=CC=C(Cl)C=C1\C2=C\C(=O)NC(=S)N2CC(N)=O` is -13.9%; for `COc1ccc2cc(OCC3(C(=O)O)CN(C(=O)c4ccc(F)cc4)C3)ccc2c1` it is -11.6%.
The figure for `COc1ccc2c(c1)CC[C@@H](CN(C)CC(=O)O)[C@H]2c1ccccc1` is -15.5%; for `COc1cccc(Nc2c(C(N)=O)cnc3c(C)cc([S+](=O)([O-])c4cccc(C(=O)N(C)C)c4)cc23)c1` it is -45.1%; for `CO[C@H]1CC[C@]2(CC1)CC3=C(C=C(C=C3)C4=CN=CC(=C4)C#CC)[C@@]2/5\N=C(C)/C(=N5)N` it is -11.3%.
The figure for `C[C@@H]1CCN(C(=O)N2CCCC2)C[C@@H]1N(C)c1ncnc2[nH]ccc12` is -8.82%; for `Cn1cc(-c2ccc3nnc(C(F)(F)c4ccc5ncccc5c4)n3n2)cn1` it is -26.2%.
Regarding `Cc1cc(C)c2c(c1)[C@@H](N(Cc1cc(C(F)(F)F)cc(C(F)(F)F)c1)c1nnn(C)n1)CCCN2C[C@H]1CC[C@H](C(=O)O)CC1`, the efficacy was -31.2%.
The figure for `Clc1ccc2ncc(-c3cccc(NC4CNC4)n3)n2c1` is -10.1%; for `O=C(Nc1ccc(F)c(C(F)(F)F)c1)Nc1nnc(-c2ccncc2)s1` it is -29%; for `O=C1CC(c2c[nH]c3ccc(F)cc23)C(=O)N1` (stereo not given) it is -7.69%.
As for `NC(=O)c1noc([C@H](CCCC2CCCCC2)CC(=O)NO)n1`, the figure is -86.4%; as for `NC(=O)[C@@H](CC1CC1)[C@@H](CCC(F)(F)F)C(=O)N[C@H]2\N=C(C3=CC=CC=C3)/C4=CC=CC(=C4NC2=O)F`, -12.2%.
The figure for `Nc1nc(N)c2nc(-c3cccc(O)c3)c(-c3cccc(O)c3)nc2n1` is -7.47%; for `Nc1nc(OC(c2ccc(-c3cccc(F)c3)cc2)C(F)(F)F)cc(-c2ccc(C[C@@H](N)C(=O)O)cc2)n1` (stereo not given in full) it is -26%.
Consider `O=C1N\N=C(\C[C@@H]2CCN(C2)C(=O)C3CC3)N1C4=CC=C(C=C4)C5=CC=C6OC=CC6=C5`, for which the efficacy is -40.3%.
As for `O=C(O)c1ccc(-c2c[nH]c3ncc(-c4ccccc4)cc23)cc1C1CCCC1`, the figure is -22.5%; as for `O=C(O)c1ccc(CN2CCC(CN[C@@H]3C[C@H]3c3ccccc3)CC2)cc1`, -14.1%; as for `O=C(Nc1ccccc1)Nc1ccc(-c2ccc(C(=O)[C@@H]3CCC[C@H]3C(=O)O)cc2)cc1`, -8.51%.
The figure for `O=C1NC(=O)/C(=C/c2ccc(-c3ccc(F)cc3O)o2)S1` is -29.8%.
Regarding `O=C(NOCCO)c1cc(CN2OCCCC2=O)c(F)c(F)c1Nc1ccc(I)cc1F`, the efficacy was -60.6%.
Take `O=C(NC[C@H](O)CN1CCc2ccccc2C1)c1ccnc(NC2CCC2)c1`: the efficacy was -5.9%.
As for `O=[N+]([O-])c1ccc(-c2nc(-c3ccc(F)cc3)c(-c3ccncc3)[nH]2)cc1`, the figure is -23.7%.
`OC[C@H]1O[C@@H](O[C@@H]2[C@@H](CO)OC(O)(CO)[C@H]2O)[C@H](O)[C@@H](O)[C@H]1O` (mixture of isomers) [Lactulose]: the efficacy is 9%.
`CC[S+](=O)([O-])N1CCC([C@@H](C)n2c(C)c(/C(O)=N/Cc3c(OC)cc(C)nc3O)c3ccccc32)CC1` (racemic) [CPI-169 racemate]: the efficacy is -16.2%.
For `CN1CCN(C)C(=O)C1C2=CC=C(N/C3=N/C(=C\N(C)C3=O)C4=C(C)C(=CC=C4)NC(=O)C5=CC6=C(CCCC6)S5)C=C2` (racemic) [GDC-0834 racemate], the efficacy is -21.2%.
As for `OC[C@H]1OC(O)C[C@@H](O)[C@@H]1O` (stereo not given in full) [2-Deoxyglucose], the figure is -11.9%.
As for `N=C1N[C@H]2[C@H](CS[C@H]2CCCCC(=O)O)N1` [2-Iminobiotin], the figure is 16%; as for `O=C(O)CCCc1c[nH]c2ccccc12` [3-indolebutyric acid], 15%.
As for `Nc1ncnc2ccccc12` [4-Quinazolinamine], the figure is -11.9%.
For the compound `N[C@@H](Cc1c[nH]c2ccc(O)cc12)C(=O)O` [5-Hydroxytryptophan], the efficacy is -7.82%.
As for `Nc1ncnc2c1nc(Cl)n2[C@@H]1O[C@H](CO)[C@@H](O)[C@H]1O` [8-Cl-Ado], the figure is -73.3%; as for `CC(=O)O[C@@]12CO[C@@H]1C[C@H](O)[C@]3(C)[C@@H]2[C@H](OC(=O)C4=CC=CC=C4)[C@]5(O)C[C@H](O)/C(=C(/[C@@H](O)C3=O)C5(C)C)C` [10-Deacetylbaccatin], -50.2%; as for `CCC(=O)O[C@@]1(CC[C@H]2[C@@H]3CCC/4=C/C(=O)CC[C@]4(C)[C@H]3CC[C@]12C)C(=O)CO` [17 alpha-propionate], -15.6%.
The figure for `CC(C)[C@H]1C(=O)N[C@H](CO)Cc2c[nH]c3cccc(c23)N1C` [(-)-Indolactam V] is 9.83%; for `O=C([C@@H](Cc1cccc(C(F)(F)F)c1)N[S+](=O)([O-])c1cc(F)c2c(c1)CCNC2)N1CCCC1` [(R)-PFI-2] it is -23.9%; for `O=C1c2c(O)cc(O)cc2O[C@H](c2ccc(O)c(O)c2)[C@H]1O` [(▒)-Taxifolin] it is 4.75%.
The figure for `Cc1cccc(-c2nn(C(=S)Nc3ccccc3)cc2-c2ccnc3ccccc23)n1` [A-83-01] is -22.3%; for `Clc1cc2c(NC3CCCC3)nnc(-c3ccncc3)c2cc1Cl` [A-196] it is 14.4%; for `COC1=CC2=C(C=C1OCCCN3CCCC3)\N=C(N)/C24CCC4` [A-366] it is 8%.
As to `CC(=O)NCCCS(=O)(=O)[O-]` [ACAMPROSATE CALCIUM], the efficacy worked out at 8.04%.
As for `COCc1c(-c2ccc(NC(=O)Nc3cc(C(F)(F)F)ccc3F)c(F)c2)c2c(N)ncnn2c1CN1CCOCC1` [ACTB-1003], the figure is -76%; as for `N#Cc1ccnc(N2C(=O)CC[C@H]2C(=O)N(c2cncc(F)c2)C(C(=O)NC2CC(F)(F)C2)c2ccccc2Cl)c1` (stereo not given in full) [AG-120], -22.2%; as for `C[C@H](Nc1nc(N[C@H](C)C(F)(F)F)nc(-c2cccc(Cl)n2)n1)C(F)(F)F` [AG-881], -28.1%.
The figure for `Cc1ccccc1C(C(=O)NC1CCCCC1)N(C(=O)Cn1ccnc1C)c1cccc(F)c1` (stereo not given) [AGI-5198] is -18.4%.
As for `c1ccc(CNCc2ccc(CN3CCCNCCNCCCNCC3)cc2)nc1` [AMD-3465], the figure is -13.1%; as for `CN1N(C2=CC=CC=C2)C(=O)C(=C1/C3=CC=CC=C3)/C(=O)C4=CC=C(C)C(=C4N)C5=CC=C6N=C(C)C=CC6=C5` [AMG PERK 44], -31.8%.
On to `COCCOC1=CN=C2\C=C/N([C@H](C)C3=NN=C4[N]3C=C(C=C4F)C5=C[N](C)N=C5)C(=O)C2=C1` [AMG-337], for which the efficacy was -4.95%.
As for `C[C@H]1CC[C@H](n2c3cnccc3c3cnc(Nc4ccc5c(n4)CCN(C(=O)CO)C5)nc32)CC1` [AMG-925 (FLX925)], the figure is -21.6%.
